Where a name gives a salt, the structure may show the parent alone.
Tests used:
Type in all cases: biochemical
[1] = target: Human LOXL2 (Homo sapiens (Human), UniProt Q9Y4K0); experiment: LOXL2 inhibition, peroxidase-coupled Amplex Red amine oxidase assay; conditions: 30 min preincubation at 37° C., putrescine substrate
Source text: (§1) Method to Determine the Ability of Compounds of the Invention to Inhibit LOX and LOXL1-4 from Different Sources
(§2) Lysyl oxidase (LOX) is an extracellular copper dependent enzyme which oxidizes peptidyl lysine and hydroxylysine residues in collagen and lysine residues in elastin to produce peptidyl alpha-aminoadipic-delta-semialdehydes. […] There are five LOX family members; these are LOX, LOXL1, LOXL2, LOXL3 and LOXL4. LOX and LOXL family members can be acquired as recombinant active proteins from commercial sources, or extracted from animal tissues like bovine aorta, tendons, pig skin; or prepared from cell cultures. The inhibitory effects of the compounds of the present invention were tested against the given LOX-LOXL preparation using a high-throughput coupled colorimetric method (Holt A. and Palcic M., A peroxidase-coupled continuous absorbance plate-reader assay for flavin monoamine oxidases, copper-containing amine oxidases and related enzymes. Nat. Protoc. 2006; 1: 2498-2505). The assay was developed using either 384 or 96 well format. Briefly, in a standard 384 well plate assay 25 μL of a dilution of any of the isoenzymes and orthologues in 1.2 M urea, 50 mM sodium borate buffer (pH 8.2) were added into each well in the presence of 1 μM mofegiline and 0.5 mM pargyline (to inhibit SSAO and MAO-B and MAO-A, respectively). Test compounds were dissolved in DMSO and tested in a Concentration Response Curve (CRC) with 11 data points, typically in the micromolar or nanomolar range after incubation with the enzyme for 30 min at 37° C. Twenty five L of a reaction mixture containing twice the KM concentration of putrescine (Sigma Aldrich, e.g. 20 mM for LOX, or 10 mM for LOXL2 and LOXL3), 120 μM Amplex Red (Sigma Aldrich) and 1.5 U/mL horseradish peroxidase (Sigma Aldrich) prepared in 1.2 M urea, 50 mM sodium borate buffer (pH 8.2) were then added to the corresponding wells. The above volumes were doubled in the case of 96 wells plate. The fluorescence (RFU) was read every 2.5 min for 30 min at a range of temperatures from 37° to 45° C., excitation 565 nm and emission 590 (Optima; BMG labtech). The slope of the kinetics for each well was calculated using MARS data analysis software (BMG labtech) and this value was used to deduce the IC50 value (Dotmatics).

[2] = target: human recombinant SSAO/VAP-1 (Homo sapiens (Human), UniProt Q16853); experiment: Inhibition of human recombinant SSAO/VAP-1 amine oxidase activity; conditions: 30 min preincubation at 37° C., 600 μM benzylamine
Chain of human recombinant SSAO/VAP-1 (Q16853 34-763): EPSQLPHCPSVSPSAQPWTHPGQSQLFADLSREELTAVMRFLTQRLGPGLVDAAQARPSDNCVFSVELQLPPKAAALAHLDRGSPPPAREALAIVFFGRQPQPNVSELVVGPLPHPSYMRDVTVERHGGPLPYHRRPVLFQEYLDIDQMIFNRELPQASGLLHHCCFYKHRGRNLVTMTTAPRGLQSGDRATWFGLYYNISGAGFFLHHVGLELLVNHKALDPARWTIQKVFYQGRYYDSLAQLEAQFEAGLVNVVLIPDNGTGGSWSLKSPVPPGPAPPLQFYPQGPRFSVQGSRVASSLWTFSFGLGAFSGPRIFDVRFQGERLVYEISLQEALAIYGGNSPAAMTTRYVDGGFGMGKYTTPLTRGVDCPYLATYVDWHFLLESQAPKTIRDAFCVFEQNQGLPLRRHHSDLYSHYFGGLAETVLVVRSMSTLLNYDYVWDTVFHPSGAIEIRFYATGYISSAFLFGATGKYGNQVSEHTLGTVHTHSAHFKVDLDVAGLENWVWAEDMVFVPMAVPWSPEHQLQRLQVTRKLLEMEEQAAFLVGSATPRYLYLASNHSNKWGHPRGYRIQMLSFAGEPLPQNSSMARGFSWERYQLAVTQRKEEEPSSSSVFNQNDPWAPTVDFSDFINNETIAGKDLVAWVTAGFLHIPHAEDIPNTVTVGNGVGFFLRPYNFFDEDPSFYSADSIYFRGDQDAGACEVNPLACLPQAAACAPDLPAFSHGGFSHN
Method: Method to Determine the Ability of Compounds of Formula I to Inhibit Human Recombinant SSAO/VAP-1
Human recombinant SSAO/VAP-1 amine oxidase activity was determined using the coupled colorimetric method as described for monoamine oxidase, copper-containing amine oxidases and related enzymes (Holt A. and Palcic M., A peroxidase-coupled continuous absorbance plate-reader assay for flavin monoamine oxidases, copper-containing amine oxidases and related enzymes. Nat Protoc 2006; 1: 2498-2505). Briefly, a cloned cDNA template corresponding to residues 34-763 of human SSAO/VAP-1, and incorporating a mouse Ig kappa (κ) signal sequence, N-terminal flag epitope tag and tobacco etch virus (TEV) cleavage site, was assembled in a mammalian expression vector (pLO-CMV) by Geneart AG. This vector containing human SSAO/VAP-1 residues was transfected into CHO-K1 glycosylation mutant cell line, Lec 8. A clone stably expressing human SSAO/VAP-1 was isolated and cultured in large scale. Active human SSAO/VAP-1 was purified and recovered using immunoaffinity chromatography. This was used as the source for SSAO/VAP-1 activity. A high-throughput colorimetric assay was developed using either 96 or 384 well format. Briefly, in a standard 96 well plate assay 50 μL of purified human SSAO/VAP-1 (0.25 μg/mL) in 0.1 M sodium phosphate buffer (pH 7.4) was added into each well. Test compounds were dissolved in DMSO and tested in a Concentration Response Curve (CRC) with 4-11 data points, typically in the micromolar or nanomolar range after incubation with human SSAO/VAP-1 for 30 min at 37° C. After 30 min incubation, 50 μL of the reaction mixture containing 600 μM benzylamine (Sigma Aldrich), 120 μM Amplex Red (Sigma Aldrich) and 1.5 U/mL horseradish peroxidase (Sigma Aldrich) prepared in 0.1 M sodium phosphate buffer (pH 7.4) were added to the corresponding well. The fluorescence unit (RFU) was read every 2.5 min for 30 min at 37° C. excitation 565 nm and emission 590 (Optima; BMG labtech). The slope of the kinetics for each well was calculated using MARS data analysis software (BMG labtech) and this value was used to deduce the IC50 value (Dotmatics).

[3] = target: Recombinant human MAO-B (Homo sapiens (Human), UniProt P27338); experiment: Inhibition of human recombinant MAO-B; conditions: benzylamine 100 μM
Chain of Recombinant human MAO-B (P27338 whole entry): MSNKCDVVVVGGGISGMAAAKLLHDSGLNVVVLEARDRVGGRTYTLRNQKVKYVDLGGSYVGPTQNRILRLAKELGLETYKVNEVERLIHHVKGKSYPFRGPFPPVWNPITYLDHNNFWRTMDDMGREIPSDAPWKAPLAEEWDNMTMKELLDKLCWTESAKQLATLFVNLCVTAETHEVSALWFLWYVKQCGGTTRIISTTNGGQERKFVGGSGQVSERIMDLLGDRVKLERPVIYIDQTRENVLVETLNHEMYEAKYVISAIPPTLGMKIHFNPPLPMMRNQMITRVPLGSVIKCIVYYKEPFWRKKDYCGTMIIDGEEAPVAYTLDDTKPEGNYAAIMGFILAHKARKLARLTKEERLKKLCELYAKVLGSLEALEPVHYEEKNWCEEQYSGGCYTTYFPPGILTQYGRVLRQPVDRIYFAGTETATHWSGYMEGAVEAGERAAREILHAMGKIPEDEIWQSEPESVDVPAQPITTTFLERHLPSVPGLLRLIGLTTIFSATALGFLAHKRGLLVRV
Method: Method to Determine the Ability of Compounds of Formula I to Inhibit Human Recombinant MAO-B
The specificity of the compounds of this invention was tested by determining their ability to inhibit MAO-B activities in vitro. Recombinant human MAO-B (0.06 mg/mL; Sigma Aldrich) was used as source of MAO-B enzyme activities. The assay was performed in a similar way as for human SSAO/VAP-1 (Example 66) except, the substrate benzylamine was used at 100 μM.

[4] = target: Bovine LOX (Bos taurus (Bovine), UniProt P33072); experiment: LOX inhibition, peroxidase-coupled Amplex Red amine oxidase assay; conditions: 30 min preincubation at 37° C., putrescine substrate
Chain of Bovine LOX (P33072 170-418): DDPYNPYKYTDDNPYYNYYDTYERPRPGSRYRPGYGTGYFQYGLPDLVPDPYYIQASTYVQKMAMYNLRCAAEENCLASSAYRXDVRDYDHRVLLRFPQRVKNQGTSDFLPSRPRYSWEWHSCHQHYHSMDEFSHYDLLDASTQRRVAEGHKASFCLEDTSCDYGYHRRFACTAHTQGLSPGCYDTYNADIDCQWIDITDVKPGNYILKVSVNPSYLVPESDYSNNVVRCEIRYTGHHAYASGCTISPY
Source text: as §1
as §2, with “Test compounds were dissolved in DMSO and tested in a Concentration Response Curve (CRC) with 11 data points, typically in the micromolar or nanomolar range after incubation with the enzyme for 30 min at 37° C.” left out

Chain of Human LOXL2 (Q9Y4K0 26-774): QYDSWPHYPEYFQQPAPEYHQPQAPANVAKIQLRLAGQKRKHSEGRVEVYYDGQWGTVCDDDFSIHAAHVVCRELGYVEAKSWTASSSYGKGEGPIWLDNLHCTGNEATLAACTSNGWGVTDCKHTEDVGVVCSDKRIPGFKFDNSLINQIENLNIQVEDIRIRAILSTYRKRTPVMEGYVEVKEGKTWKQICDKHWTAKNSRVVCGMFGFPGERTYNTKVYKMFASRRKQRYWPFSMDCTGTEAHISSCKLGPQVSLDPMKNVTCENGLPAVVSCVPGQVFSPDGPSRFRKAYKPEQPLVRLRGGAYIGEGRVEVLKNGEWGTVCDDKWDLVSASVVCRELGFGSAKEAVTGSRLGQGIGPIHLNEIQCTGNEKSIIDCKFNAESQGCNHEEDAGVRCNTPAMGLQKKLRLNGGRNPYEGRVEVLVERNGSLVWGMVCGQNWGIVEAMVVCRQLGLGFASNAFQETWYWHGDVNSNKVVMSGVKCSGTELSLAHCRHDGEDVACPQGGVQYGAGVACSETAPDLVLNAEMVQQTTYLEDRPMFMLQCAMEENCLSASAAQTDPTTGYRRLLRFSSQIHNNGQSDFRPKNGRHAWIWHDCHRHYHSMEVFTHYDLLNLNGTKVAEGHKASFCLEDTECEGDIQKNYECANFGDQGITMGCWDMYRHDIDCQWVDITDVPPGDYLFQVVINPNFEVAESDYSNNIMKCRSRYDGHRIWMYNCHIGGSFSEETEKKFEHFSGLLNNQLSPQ

SMILES	IC50 [1] [nM]	IC50 [2] [nM]	IC50 [3] [nM]	IC50 [4] [nM]
NC/C=C(\F)Cn1cc(-c2ccc(F)cc2)c2ccccc21 [Compound 1, (Z)-3-fluoro-4-(3-(4-fluorophenyl)-1H-indol-1-yl)but-2-en-1-amine]	< 300	> 3000	> 3000	> 300
Cc1c(-c2cncc(S(=O)(=O)N(C)C)c2)c2cc(OC(F)(F)F)ccc2n1C/C(F)=C/CN [Compound 85, (Z)-5-(1-(4-amino-2-fluorobut-2-en-1-yl)-2-methyl-5-(trifluoromethoxy)-1H-indol-3-yl)-N,N-dimethyl-pyridine-3-sulfonamide Dihydrochloride]	< 300	> 3000	> 3000	> 300
Cc1c(-c2ccccc2)c2cc(S(=O)(=O)N(C)C)ccc2n1C/C(F)=C/CN [Compound 86, (Z,)-1-(4-amino-2-fluorobut-2-en-1-yl)-N,N,2-trimethyl-3-phenyl-1H-indole-5-sulfonamide]	< 300	> 3000	> 3000	> 300
Cc1c(-c2cccc(S(=O)(=O)C(F)(F)F)c2)c2cc(C(=O)N(C)C)ccc2n1C/C(F)=C/CN [Compound 57, (Z)-1-(4-amino-2-fluorobut-2-en-1-yl)-N,N,2-trimethyl-3-(3-((trifluoromethyl)sulfonyl)phenyl)-1H-indole-5-carboxamide]	< 300	> 3000	> 3000	> 300
Cc1c(-c2cccc(N(C)S(C)(=O)=O)c2)c2cc(C(=O)O)ccc2n1C/C(F)=C/CN [Compound 38, (Z)-1-(4-amino-2-fluorobut-2-en-1-yl)-2-methyl-3-(3-(N-methylmethylsulfonamido)phenyl)-1H-indole-5-carboxylic acid]	< 300	> 3000	> 3000	> 300
CCOC(=O)c1cc2c(-c3cccc(S(=O)(=O)N(C)C)c3)c(C)n(C/C(F)=C/CN)c2cc1F [Compound 22, (Z)-ethyl 1-(4-amino-2-fluorobut-2-en-1-yl)-3-(3-(N,N-dimethylsulfamoyl)phenyl)-6-fluoro-2-methyl-1H-indole-5-carboxylate]	< 300	> 3000	> 3000	> 300
Cc1c(-c2cccc(C(F)(F)F)c2)c2cc(C(=O)N(C)C)ccc2n1C/C(F)=C/CN [Compound 56, (Z)-1-(4-amino-2-fluorobut-2-en-1-yl)-N,N,2-trimethyl-3-(3-(trifluoromethyl)phenyl)-1H-indole-5-carboxamide]	< 300	> 3000	> 3000	> 300
CN(C)S(=O)(=O)c1cccc(-c2c(Cl)n(C/C(F)=C/CN)c3ccc(S(C)(=O)=O)cc23)c1 [Compound 100, (Z)-3-(1-(4-amino-2-fluorobut-2-en-1-yl)-2-chloro-5-(methylsulfonyl)-1H-indol-3-yl)-N,N-dimethylbenzenesulfonamide]	< 300	> 3000	> 3000	> 300
CCOC(=O)c1ccc2c(c1)c(-c1cccc(C(=O)N(C)C)c1)c(C)n2C/C(F)=C/CN [Compound 15, (Z)-ethyl 1-(4-amino-2-fluorobut-2-en-1-yl)-3-(3-(dimethylcarbamoyl)phenyl)-2-methyl-1H-indole-5-carboxylate Hydrochloride]	< 300	> 3000	> 3000	> 300
Cc1c(-c2cccc(S(=O)(=O)C(C)C)c2)c2nc(C(C)(C)O)ccc2n1C/C(F)=C/CN [Compound 117, (Z)-2-(1-(4-amino-2-fluorobut-2-en-1-yl)-3-(3-(isopropylsulfonyl)phenyl)-2-methyl-1H-pyrrolo[3,2-b]pyridin-5-yl)propan-2-ol Dihydrochloride]	< 300	–	–	> 300
CCS(=O)(=O)c1cccc(-c2c(C(C)C)n(C/C(F)=C/CN)c3ccc(C)nc23)c1 [Compound 113, (Z)-4-(3-(3-(ethylsulfonyl)phenyl)-2-isopropyl-5-methyl-1H-pyrrolo[3,2-b]pyridin-1-yl)-3-fluorobut-2-en-1-amine Dihydrochloride]	< 300	–	–	> 300
Cc1c(-c2cccc(S(C)(=O)=O)c2)c2nc(C(C)(C)O)ccc2n1C/C(F)=C/CN [Compound 116, (Z)-2-(1-(4-amino-2-fluorobut-2-en-1-yl)-2-methyl-3-(3-(methylsulfonyl)phenyl)-1H-pyrrolo[3,2-b]pyridin-5-yl)propan-2-ol Dihydrochloride]	< 300	–	–	> 300
Cc1c(-c2cccc(S(C)(=O)=O)c2)c2nc(CF)ccc2n1C/C(F)=C/CN [Compound 115, (Z)-3-fluoro-4-(5-(fluoromethyl)-2-methyl-3-(3-(methylsulfonyl)phenyl)-1H-pyrrolo[3,2-b]pyridin-1-yl)but-2-en-1-amine Dihydrochloride]	< 300	–	–	> 300
CCS(=O)(=O)c1cccc(-c2c(C)n(C/C(F)=C/CN)c3ccc(C)nc23)c1 [Compound 114, (Z)-4-(3-(3-(ethylsulfonyl)phenyl)-2,5-dimethyl-1H-pyrrolo[3,2-b]pyridin-1-yl)-3-fluorobut-2-en-1-amine Dihydrochloride]	< 300	–	–	> 300
